Measured values taken from paper PMC2880701 (Journal of the American Chemical Society, 2009).

Columns and labels:
HDAC1 = HDAC1 (Homo sapiens, UniProt Q13547); assay: homogeneous trypsin-coupled fluorigenic HDAC assay, HDAC1; conditions: isostere versus corresponding depsipeptide natural product (active thiol forms)
HDAC2 = HDAC2 (Homo sapiens, UniProt Q92769); type: biochemical; conditions: read-out: HDAC inhibitory activity IC50, HDAC2
HDAC2, sequence (Q92769 whole entry): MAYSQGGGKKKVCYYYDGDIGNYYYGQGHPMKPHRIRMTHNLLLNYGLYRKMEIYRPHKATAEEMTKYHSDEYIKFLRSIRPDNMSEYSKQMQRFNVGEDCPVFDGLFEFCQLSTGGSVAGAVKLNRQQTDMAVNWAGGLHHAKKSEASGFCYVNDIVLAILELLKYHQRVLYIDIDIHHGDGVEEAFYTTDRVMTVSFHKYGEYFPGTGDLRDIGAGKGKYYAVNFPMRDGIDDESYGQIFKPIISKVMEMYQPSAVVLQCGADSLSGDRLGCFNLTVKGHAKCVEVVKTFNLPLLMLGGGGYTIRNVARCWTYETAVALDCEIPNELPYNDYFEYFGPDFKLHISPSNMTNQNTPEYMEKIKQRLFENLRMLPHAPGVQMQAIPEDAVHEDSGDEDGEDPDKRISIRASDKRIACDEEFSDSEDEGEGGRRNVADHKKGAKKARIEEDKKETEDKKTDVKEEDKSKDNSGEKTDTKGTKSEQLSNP

HDAC1, sequence (Q13547 whole entry): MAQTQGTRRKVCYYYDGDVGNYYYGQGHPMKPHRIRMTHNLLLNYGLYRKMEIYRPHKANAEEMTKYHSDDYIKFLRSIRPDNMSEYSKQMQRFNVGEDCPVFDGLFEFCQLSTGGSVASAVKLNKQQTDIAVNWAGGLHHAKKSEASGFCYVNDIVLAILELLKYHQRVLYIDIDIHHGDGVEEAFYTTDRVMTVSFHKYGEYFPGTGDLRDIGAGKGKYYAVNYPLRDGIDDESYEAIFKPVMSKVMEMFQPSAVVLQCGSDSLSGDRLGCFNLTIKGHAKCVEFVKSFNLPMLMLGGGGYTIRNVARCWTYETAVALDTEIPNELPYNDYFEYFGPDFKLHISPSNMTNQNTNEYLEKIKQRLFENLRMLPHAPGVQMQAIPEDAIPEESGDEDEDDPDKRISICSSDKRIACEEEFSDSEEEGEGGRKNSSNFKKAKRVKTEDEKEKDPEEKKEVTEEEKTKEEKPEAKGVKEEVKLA

## CC(C)[C@@H]1NC(=O)[C@]2(C)CSC(=N2)c2csc(n2)CNC(=O)C[C@@H](/C=C/CCS)NC1=O [Largazole Isostere Thiol (31)]
HDAC1
  fold less potent against HDAC1 than the parent natural product: 9 fold

## CCCCCCCC(=O)SCC/C=C/[C@@H]1CC(=O)NCc2nc(cs2)C2=N[C@@](C)(CS2)C(=O)N[C@@H](C(C)C)C(=O)N1 [Largazole Isostere (11)]
HDAC2
  IC50: > 3000 nM
